{
  "source": "patent US12702148B2",
  "about": "“Acetylcholinesterase inhibitor” (Taiko Pharmaceutical Co., Ltd., priority 2019, dated 2026)",
  "key": {"[1]": {"biological_target": "T1, Acetylcholinesterase from Electrophorus electricus (electric eel) Type VI-S (Electrophorus electricus, UniProt O42275)", "T1 construct": "purchased Sigma-Aldrich C3389-500UN", "T1 sequence (O42275 24-633)": "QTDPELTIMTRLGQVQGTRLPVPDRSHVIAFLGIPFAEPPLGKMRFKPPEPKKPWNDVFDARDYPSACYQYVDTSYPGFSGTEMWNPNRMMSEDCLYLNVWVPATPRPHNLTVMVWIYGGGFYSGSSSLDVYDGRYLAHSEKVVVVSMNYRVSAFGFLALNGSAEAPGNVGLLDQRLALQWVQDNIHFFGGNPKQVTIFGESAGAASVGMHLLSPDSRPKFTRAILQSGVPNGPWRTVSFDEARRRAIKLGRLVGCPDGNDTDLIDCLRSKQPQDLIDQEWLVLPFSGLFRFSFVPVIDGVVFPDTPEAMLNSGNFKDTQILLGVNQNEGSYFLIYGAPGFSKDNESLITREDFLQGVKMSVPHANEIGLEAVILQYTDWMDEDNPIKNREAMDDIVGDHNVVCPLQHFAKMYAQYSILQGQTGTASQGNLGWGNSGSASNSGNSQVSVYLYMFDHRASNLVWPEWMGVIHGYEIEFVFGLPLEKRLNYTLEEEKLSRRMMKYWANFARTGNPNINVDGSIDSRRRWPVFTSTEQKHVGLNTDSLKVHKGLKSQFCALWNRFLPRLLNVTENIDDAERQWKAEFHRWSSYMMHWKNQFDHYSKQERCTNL", "assay": "biochemical", "experimental": "2. Reagents 2.1 AchE Enzyme • Name: Acetylcholinesterase from Electrophorus electricus (electric eel) Type VI-S • Serial number: C3389-500UN • Obtained from: Sigma-Aldrich • Storage condition: Frozen (−20° C.) 2.2 AchE Activity Measurement Kit • Name: Acetylcholinesterase Activity Assay Kit • Serial number: MAK119 • Obtained from: Sigma-Aldrich • Storage condition: Room temperature 2.3 Solvent • Name: UltraPure 1M Tris-HCL pH 7.5 • Serial number: 15567-027 • Obtained from: Invitrogen • Storage condition: Refrigerated (4° C.) 2.4 Water\nAchE enzyme (lyophilized powder) 2 mg (500 units) was dissolved in 2 mL of Tris-HCL Buffer pH 7.5 prepared to a concentration of 20 mM. This was then further diluted 30-folds with ultrapure water to prepare to a concentration of 33.3 μg/mL.\nTwo mg of the reagent included in the AchE activity measurement kit was weighed, dissolved in 200 mL of the assay buffer, and the working solution was obtained.\nMeasurement was carried out according to the following order. • 1) AchE enzyme solution (33.3 μg/mL) is mixed with test substance 1 solution (5 mg/mL) and ultrapure water according to the following Table 1.\n(§1) • 2) The mixture is allowed to react in a thermobath at 37° C. for 10 minutes. • 3) 200 μL each of ultrapure water is added to 4 wells (n=4) of a 96-well microplate (blank wells.) • 4) 200 μL each of the calibrator included in the AchE activity measurement kit is added to 4 wells (n=4) different from those in Procedure 3) (calibrator wells.) • 5) 190 μL each of the working solution is added to yet another 24 wells (6 samples×4) (sample wells.) • 6) To the wells with the working solution added, 10μ each of post-reaction solutions No. 1-6 obtained in Procedure 2) is added to 4 wells (n=4) each. • 7) The plates are lightly tapped to allow mixing, reacted for 2 minutes at room temperature, and then absorbance at 412 nm is read with a microplate reader. • 8) This is allowed to react for another 8 minutes at room temperature (a total of 10 minutes), and then the absorbance at 412 nm is measured.\nMeasurement was carried out according to the following order. • 1) AchE enzyme solution (33.3 μg/mL) is mixed with test substance 2 solution (800 μg/mL) and ultrapure water according to the following Table 2.\nas §1, with “measured. 6. Data Processing” for “measured.”\nEmploying the absorbance values obtained, the AchE activity (units/mL) was calculated by the formula below, and the average value and standard deviation of the AchE activity (units/mL) for each test substance at each concentration was calculated.\n[formula] • (A412) final: Absorbance value at 412 nm after 10 minutes of reaction • (A412) initial Absorbance value at 412 nm after 2 minutes of reaction • n: Dilution coefficient (n=120) 0.2: Coefficient by Calibrator\nMoreover, employing the AchE activity for the test substance at each concentration, One phase exponential decay curve was obtained by GraphPad Prism, and the IC50 value (mg/mL) was calculated."}, "[2]": {"biological_target": "T1, Acetylcholinesterase from Electrophorus electricus (electric eel) Type VI-S", "format": "biochemical", "conditions": "n=3, average value"}},
  "note": "Where two headings read alike, the source gives them in different places.",
  "data": [
    {"smiles": "COc1ccccc1O", "note": "[GUA, Guaiacol]", "values": [
      {"measurement": "IC50", "setting": "[1]; nonlinear regression curve of AchE activity at each concentration (GraphPad Prism), read-out: IC50 value (converted)", "value": 137, "unit": "mM"},
      {"measurement": "inhibition at 200 µM", "setting": "[1]; read-out: Inhibitory rate", "value": 3, "unit": "%"},
      {"measurement": "inhibition at 700 µM", "setting": "[1]; read-out: Inhibitory rate", "value": 3.9, "unit": "%"},
      {"measurement": "inhibition at 2000 µM", "setting": "[1]; read-out: Inhibitory rate", "value": 2.2, "unit": "%"},
      {"measurement": "inhibition at 7000 µM", "setting": "[1]; read-out: Inhibitory rate", "value": 19.9, "unit": "%"},
      {"measurement": "inhibition at 20000 µM", "setting": "[1]; read-out: Inhibitory rate", "value": 58.8, "unit": "%"},
      {"measurement": "IC50", "setting": "[1]; regression curve by GraphPad Prism, Example 2, read-out: IC50", "value": 17, "unit": "mM"},
      {"measurement": "AchE activity", "setting": "[2]; GUA concentration 0.2 mM", "value": 24.89, "unit": "units/mL"},
      {"measurement": "AchE activity", "setting": "[2]; GUA concentration 0.7 mM", "value": 24.64, "unit": "units/mL"},
      {"measurement": "AchE activity", "setting": "[2]; GUA concentration 2 mM", "value": 25.09, "unit": "units/mL"},
      {"measurement": "AchE activity", "setting": "[2]; GUA concentration 7 mM", "value": 20.54, "unit": "units/mL"},
      {"measurement": "AchE activity", "setting": "[2]; GUA concentration 20 mM", "value": 10.56, "unit": "units/mL"}
    ]}
  ]
}
